System: mice
Assay: Acute oral toxicity in mice
Format: in vivo
Procedure: By way of example there are described below the comparative tests made on difluorohydrate of N,N'-di(hydroxyethyl) piperazine and on fluorohydrate of hexadecylamine or "ELMEX 242".
The acute toxidity was studies in rats and in mice.
The animals came from a homogeneous breed. The mice weighed between 19 and 21 g and the rats weighed from 120 to 140 g. The mice were grouped in lots of 10 and the rats in lots of 8.
The administrations took place orally at a volume of 0.5 ml per 20 g of mouse and 1 ml per 100 g of rat. The LD50 was determined by the method of Lichfield and Wilcoxon.
As regards the difluorohydrate of N,N'-di(hydroxyethyl) piperazine, the administered solution was prepared by diluting the mother solution to 65.4%, the dilutions being made after having weighed this solution. The administered dose is expressed by weight, taking account of the indicated strength of this solution.
For the solid "ELMEX 242" an aqueous suspension was prepared with the aid of solubilizing agents (e.g. Tween-polyoxyethylene sorbitan monolaurate). A very thick suspension is then obtained which tends to foam heavily, is difficult to get into the esophageal sound, and the determination of its volume is rendered difficult by the foam.
The results obtained with the "ELMEX" are therefore rather approximate.

OCCN1CCN(CCO)CC1 [DIFLUOROHYDRATE OF N,N'-DI(HYDROXY-ETHYL) PIPERAZINE]
toxicity compared with ELMEX 242 (conclusion from mouse and rat, solution versus suspension): clearly more toxic than "ELMEX 242"
course: death and recovery (mouse): Death occurs after one hour at the highest doses.
symptoms (mouse): At higher doses the mice are totally immobile. They show light trembling, but over the entire body, also diarrhea.
Deaths (mouse, 200 mg/kg, D + 1, 10 per lot): 0
Deaths (mouse, 200 mg/kg, D + 2, 10 per lot): 0
Deaths (mouse, 200 mg/kg, D + 5, 10 per lot): 0
Deaths (mouse, 200 mg/kg, D + 10, 10 per lot): 0
Deaths (mouse, 300 mg/kg, D + 1, 10 per lot): 0
Deaths (mouse, 300 mg/kg, D + 2, 10 per lot): 0
Deaths (mouse, 300 mg/kg, D + 5, 10 per lot): 0
Deaths (mouse, 300 mg/kg, D + 10, 10 per lot): 0
Deaths (mouse, 400 mg/kg, D + 1, 10 per lot): 2
Deaths (mouse, 400 mg/kg, D + 2, 10 per lot): 3
Deaths (mouse, 400 mg/kg, D + 5, 10 per lot): 3
Deaths (mouse, 400 mg/kg, D + 10, 10 per lot): 3
Deaths (mouse, 500 mg/kg, D + 1, 10 per lot): 3
Deaths (mouse, 500 mg/kg, D + 2, 10 per lot): 5
Deaths (mouse, 500 mg/kg, D + 5, 10 per lot): 5
Deaths (mouse, 500 mg/kg, D + 10, 10 per lot): 5
Deaths (mouse, 600 mg/kg, D + 1, 10 per lot): 4
Deaths (mouse, 600 mg/kg, D + 2, 10 per lot): 7
Deaths (mouse, 600 mg/kg, D + 5, 10 per lot): 8
Deaths (mouse, 600 mg/kg, D + 10, 10 per lot): 8
Deaths (mouse, 700 mg/kg, D + 1, 10 per lot): 9
Deaths (mouse, 700 mg/kg, D + 2, 10 per lot): 10
Deaths (mouse, 700 mg/kg, D + 5, 10 per lot): 10
Deaths (mouse, 700 mg/kg, D + 10, 10 per lot): 10
Deaths (mouse, 800 mg/kg, D + 1, 10 per lot): 7
Deaths (mouse, 800 mg/kg, D + 2, 10 per lot): 8
Deaths (mouse, 800 mg/kg, D + 5, 10 per lot): 9
Deaths (mouse, 800 mg/kg, D + 10, 10 per lot): 9
Deaths (mouse, 1000 mg/kg, D + 1, 10 per lot): 10
Deaths (mouse, 1000 mg/kg, D + 2, 10 per lot): 10
Deaths (mouse, 1000 mg/kg, D + 5, 10 per lot): 10
Deaths (mouse, 1000 mg/kg, D + 10, 10 per lot): 10
persistence of the ill state (mouse, doses above 400 mg/kg): at least 24 hours
time to onset of coma (mouse, doses above 400 mg/kg): about 45 minutes

Reference: patent publication US4323550A, “Halogenohydrates of N,N-disubstituted derivatives of piperazine having anticariogenic properties” (priority 1976, dated 1982)
